Key:
RORγ-LBD = biological target: T1, RORγ-LBD (Homo sapiens, UniProt P51449); test: RORγ-Ligand Binding Domain (LBD) TR-FRET Assay; format: biochemical;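 for TR-FRET Assay Max Response: 665/615 nm ratio relative to signal without ursolic acid or compound set at 100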
T1 construct: made in house; host or cells: SF9 cells (baculovirus)
T1 sequence (P51449 269-508 limits assumed): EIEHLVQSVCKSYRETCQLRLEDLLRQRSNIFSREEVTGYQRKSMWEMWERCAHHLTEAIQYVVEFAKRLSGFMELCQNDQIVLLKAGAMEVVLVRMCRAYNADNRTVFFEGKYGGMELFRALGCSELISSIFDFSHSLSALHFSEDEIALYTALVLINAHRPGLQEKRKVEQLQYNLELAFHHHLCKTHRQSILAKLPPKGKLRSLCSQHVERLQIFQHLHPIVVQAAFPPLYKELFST
In short: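 SF9 lysate containing His-RORγ-LBD, ~3 nM final; coactivator peptide biotin-SRC1 LXXLL, 200 nM final; ursolic acid 2 μM final; DMSO 1% final; Tris pH 7.0 buffer with KCl, EDTA, DTT, BSA. TR-FRET format.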

Gal4-RORγ-LBD = biological target: T2, Gal4-RORγ-LBD (Homo sapiens, UniProt P51449); test: Gal4-RORγ Luciferase Reporter Assay in HEK-293T Cells; format: cell-based; details: HEK-293 cells, luciferase reporter, with 2 μM ursolic acid
T2 construct: expressed in transfected cells; host or cells: HEK-293 cells (pcDNA3.1neo plasmid)
T2 sequence (P51449 269-508 limits assumed): T1 sequence (P51449 269-508 limits assumed)
In short: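 In transfected HEK-293 cells (Gal4-RORγ-LBD, Gal4-luciferase), test agents with 2 μM ursolic acid were incubated overnight at 37 °C before luminescent detection. Values are relative to the ursolic-acid-free, compound-free signal (100).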

SMILES	EC50 (RORγ-LBD) [nM]	TR-FRET Assay Max Response (RORγ-LBD)	EC50 (Gal4-RORγ-LBD) [nM]	Gal4-RORγ Assay Max Response (Gal4-RORγ-LBD)
C=CCC(=O)NC[C@H]1CN(S(=O)(=O)c2cccc(C(F)(F)F)c2)c2cc(-c3cc(F)ccc3F)ccc2O1 [Compound 30AW, (S)-N-((6-(2,5-difluorophenyl)-4-((3-(trifluoromethyl)phenyl)-sulfonyl)-3,4-dihydro-2H-benzo[b][1,4]oxazin-2-yl)methyl)but-3-enamide]	< 500	*** (The symbol “***” indicates a value in the range of greater than 150 to 200)	< 500	** (The symbol “**” indicates a value in the range of greater than 90 to 150)
CC(C)C(=O)NC[C@H]1CN(S(=O)(=O)c2cccc(C(F)(F)F)c2)c2cc(-c3cc(F)ccc3F)ccc2O1 [Compound 30AX, (S)-N-((6-(2,5-difluorophenyl)-4-((3-(trifluoromethyl)phenyl)-sulfonyl)-3,4-dihydro-2H-benzo[b][1,4]oxazin-2-yl)methyl)isobutyramide]	< 500	*** (The symbol “***” indicates a value in the range of greater than 150 to 200)	< 500	** (The symbol “**” indicates a value in the range of greater than 90 to 150)
CC(=O)OCC(=O)NC[C@H]1CN(S(=O)(=O)c2cccc(C(F)(F)F)c2)c2cc(-c3cc(F)ccc3F)ccc2O1 [Compound 30AY, (S)-2-(((6-(2,5-difluorophenyl)-4-((3-(trifluoromethyl)phenyl)-sulfonyl)-3,4-dihydro-2H-benzo[b][1,4]oxazin-2-yl)methyl)amino)-2-oxoethyl acetate]	< 500	*** (The symbol “***” indicates a value in the range of greater than 150 to 200)	< 500	** (The symbol “**” indicates a value in the range of greater than 90 to 150)
O=C(NC[C@H]1CN(S(=O)(=O)c2cccc(C(F)(F)F)c2)c2cc(-c3cc(F)ccc3F)ccc2O1)C1CCCC1 [Compound 30AZ, (S)-N-((6-(2,5-difluorophenyl)-4-((3-(trifluoromethyl)phenyl)-sulfonyl)-3,4-dihydro-2H-benzo-[b][1,4]oxazin-2-yl)methyl)-cyclopentanecarboxamide]	< 500	**** (The symbol “****” indicates a value greater than 200)	< 500	** (The symbol “**” indicates a value in the range of greater than 90 to 150)
CC(C)(O)C(=O)NCC[C@H]1CN(S(=O)(=O)c2cccc(C(F)(F)F)c2)c2cc(-c3cccc(C(F)(F)F)n3)ccc2O1 [Compound 30B, (S)-2-hydroxy-2-methyl-N-(2-(4-((3-(trifluoromethyl)phenyl)-sulfonyl)-6-(6-(trifluoromethyl)-pyridin-2-yl)-3,4-dihydro-2H-benzo[b][1,4]oxazin-2-yl)ethyl)propanamide]	< 500	**** (The symbol “****” indicates a value greater than 200)	< 500	** (The symbol “**” indicates a value in the range of greater than 90 to 150)
O=C(CO)NC[C@H]1CN(S(=O)(=O)c2cccc(C(F)(F)F)c2)c2cc(-c3cc(F)ccc3F)ccc2O1 [Compound 30BA, (S)-N-((6-(2,5-difluorophenyl)-4-((3-(trifluoromethyl)phenyl)-sulfonyl)-3,4-dihydro-2H-benzo[b][1,4]oxazin-2-yl)methyl)-2-hydroxyacetamide]	< 500	*** (The symbol “***” indicates a value in the range of greater than 150 to 200)	< 500	** (The symbol “**” indicates a value in the range of greater than 90 to 150)
O=C(NC[C@H]1CN(S(=O)(=O)c2cccc(C(F)(F)F)c2)c2cc(-c3cc(F)ccc3F)ccc2O1)C1CCC1 [Compound 30BB, (S)-N-((6-(2,5-difluorophenyl)-4-((3-(trifluoromethyl)phenyl)-sulfonyl)-3,4-dihydro-2H-benzo-[b][1,4]oxazin-2-yl)methyl)-cyclobutanecarboxamide]	< 500	*** (The symbol “***” indicates a value in the range of greater than 150 to 200)	< 500	* (The symbol “*” indicates a value in the range of 25 to 90)
CN(C)c1cccc(-c2ccc3c(c2)N(S(=O)(=O)c2cccc(C(F)(F)F)c2)C[C@H](CNC(=O)C2CC2)O3)n1 [Compound 30BC, (S)-N-((6-(6-(dimethylamino)-pyridin-2-yl)-4-((3-(trifluoro-methyl)phenyl)sulfonyl)-3,4-dihydro-2H-benzo[b][1,4]-oxazin-2-yl)methyl)cyclo-propanecarboxamide]	< 500	*** (The symbol “***” indicates a value in the range of greater than 150 to 200)	< 500	** (The symbol “**” indicates a value in the range of greater than 90 to 150)
CC(=O)NC[C@H]1CN(S(=O)(=O)c2cccc(C(F)(F)F)c2)c2cc(-c3cc(F)ccc3F)ccc2O1 [Compound 30BD, (S)-N-((6-(2,5-difluorophenyl)-4-((3-(trifluoromethyl)phenyl)-sulfonyl)-3,4-dihydro-2H-benzo[b][1,4]oxazin-2-yl)methyl)acetamide]	< 500	**** (The symbol “****” indicates a value greater than 200)	< 500	** (The symbol “**” indicates a value in the range of greater than 90 to 150)
CC(C)(F)C(=O)NC[C@H]1CN(S(=O)(=O)c2cccc(C(F)(F)F)c2)c2cc(-c3cc(F)ccc3F)ccc2O1 [Compound 30BE, (S)-N-((6-(2,5-difluorophenyl)-4-((3-(trifluoromethyl)phenyl)-sulfonyl)-3,4-dihydro-2H-benzo[b][1,4]oxazin-2-yl)methyl)-2-fluoro-2-methylpropanamide]	< 500	*** (The symbol “***” indicates a value in the range of greater than 150 to 200)	< 500	* (The symbol “*” indicates a value in the range of 25 to 90)
COc1cc(F)cc(-c2ccc3c(c2)N(S(=O)(=O)c2cccc(C(F)(F)F)c2)C[C@H](CNC(=O)[C@@](C)(O)C(F)(F)F)O3)c1F [Compound 30BF, (R)-N-(((S)-6-(2,5-difluoro-3-methoxyphenyl)-4-((3-(trifluoro-methyl)phenyl)sulfonyl)-3,4-dihydro-2H-benzo[b][1,4]-oxazin-2-yl)methyl)-3,3,3-trifluoro-2-hydroxy-2-methylpropanamide]	< 500	**** (The symbol “****” indicates a value greater than 200)	< 500	* (The symbol “*” indicates a value in the range of 25 to 90)
NS(=O)(=O)CCC(=O)NC[C@H]1CN(S(=O)(=O)c2cccc(C(F)(F)F)c2)c2cc(-c3cccc(C(F)(F)F)n3)ccc2O1 [Compound 30BG, (S)-3-sulfamoyl-N-((4-((3-(trifluoromethyl)phenyl)-sulfonyl)-6-(6-(trifluoro-methyl)pyridin-2-yl)-3,4-dihydro-2H-benzo[b][1,4]-oxazin-2-yl)methyl)-propanamide]	< 500	*** (The symbol “***” indicates a value in the range of greater than 150 to 200)	500 to 5000	** (The symbol “**” indicates a value in the range of greater than 90 to 150)
N#CCC(=O)NC[C@H]1CN(S(=O)(=O)c2cccc(C(F)(F)F)c2)c2cc(-c3cccc(C(F)(F)F)n3)ccc2O1 [Compound 30BH, (S)-2-cyano-N-((4-((3-(trifluoromethyl)phenyl)-sulfonyl)-6-(6-(trifluoro-methyl)pyridin-2-yl)-3,4-dihydro-2H-benzo[b][1,4]-oxazin-2-yl)methyl)acetamide]	< 500	*** (The symbol “***” indicates a value in the range of greater than 150 to 200)	500 to 5000	** (The symbol “**” indicates a value in the range of greater than 90 to 150)
CC(C)(CO)C(=O)NC[C@H]1CN(S(=O)(=O)c2cccc(C(F)(F)F)c2)c2cc(-c3cccc(C(F)(F)F)n3)ccc2O1 [Compound 30BI, (S)-3-hydroxy-2,2-dimethyl-N-((4-((3-(trifluoromethyl)-phenyl)sulfonyl)-6-(6-(trifluoromethyl)pyridin-2-yl)-3,4-dihydro-2H-benzo[b][1,4]-oxazin-2-yl)methyl)-propanamide]	< 500	*** (The symbol “***” indicates a value in the range of greater than 150 to 200)	500 to 5000	* (The symbol “*” indicates a value in the range of 25 to 90)
